{"source": "paper PMC6105827", "about": "“Antitrypanosomal 8-Hydroxy-Naphthyridines Are Chelators of Divalent Transition Metals” (Antimicrobial Agents and Chemotherapy, 2018)", "key": {"HepG2 cells": {"test_system": "HepG2 cells", "assay": "HepG2 compound sensitivity assay (with/without ZnCl2)", "settings": "Homo sapiens, HepG2, read-out: HepG2 EC50", "method": "(§1) The clonal Leishmania donovani cell line LdBOB (derived from MHOM/SD/62/1S-CL2D) was grown as promastigotes at 28°C, as described previously ([53]). Bloodstream-form T. brucei MiTat 1.2 clone 221a and its derived subline, 2T1, were cultured at 37°C in the presence of 5% CO2 in HMI9-T medium, as described previously ([54]). The human carcinoma HepG2 cell line was grown at 37°C with 5% CO2 in minimal Eagle's medium (MEM) with GlutaMAX (1×; Sigma-Aldrich), nonessential amino acids (Sigma-Aldrich), and 10% FBS. Human HepG2 and THP-1 cells used in this study were ethically sourced from the ATCC.\n(§2) L. donovani intramacrophage ([7]), HepG2 ([55]), T. brucei ([56]), and L. donovani promastigote ([57]) compound sensitivity assays were carried out as described previously. Human HepG2 and THP-1 cells used in these assays were provided by the ATCC. Data were processed by using GRAFIT (version 5.0.4; Erithacus Software) and fitted to a 2-parameter equation to obtain the effective concentration inhibiting growth by 50% (EC50). Data are presented as the means of results from at least two independent experiments.\n(§3) In the first instance, the maximum tolerated concentrations of ZnCl2, CaCl2, CuCl2, MgCl2, MnCl2, and FeCl2 were determined for each cell type. […] Standard drug sensitivity assays were carried out (as described above) for each cell type with compounds 1, 2, and 3 in the presence and absence of the maximum tolerated concentration of metal salt."}, "[1]": {"test_system": "Tb927.11.1910 knockdown bloodstream trypanosomes", "assay": "Drug sensitivity of Tb927.11.1910 RNAi knockdown trypanosomes", "format": "cell-based", "settings": "Trypanosoma brucei, read-out: EC50, Tb927.11.1910 knockdown", "description": "Stem-loop RNAi constructs were assembled as described previously ([54], [62]). PCR primers were designed by using RNAit software ([63]). For HL2 (Tb927.11.15050), primers HL2FW and HL2RV were used to generate a 533-bp gene fragment, and for HL3 (Tb927.11.1910), primers HL3FW and HL3RV were used to generate a 513-bp gene fragment. The accuracy of all assembled constructs was verified by sequencing. Assembled constructs were linearized by using AscI prior to transfection into bloodstream T. brucei 2T1 parasites ([62]). In addition to phleomycin (1 μg ml^−1), trypanosomes maintaining successfully integrated vectors were selected using hygromycin (2.5 μg ml^−1) and confirmed to be puromycin (2 μg ml^−1) resistant. To generate C-terminal 12×Myc tagging vectors for Tb927.11.15050 (Myc1) and Tb927.11.1910 (Myc2), primers Myc1FW and Myc1RV and primers Myc2FW and Myc2RV were used to generate 924-bp and 1,095-bp fragments, respectively. Fragments were inserted into the pNATx^12xMyc construct ([54]) via HindIII and XbaI restriction sites. The accuracy of the assembled constructs was verified by sequencing, and the constructs were linearized with the restriction endonuclease MfeI prior to transfection into the above-described HL2 and HL3 trypanosomes. Trypanosomes maintaining successfully integrated vectors were selected with blasticidin (1 μg ml^−1)."}, "[2]": {"test_system": "T. brucei bloodstream forms", "assay": "microbe, parasite or virus in culture", "method": "as §1, §2, §3"}, "[3]": {"test_system": "L. donovani promastigotes", "assay": "L. donovani promastigote compound sensitivity assay (with/without metal salts)", "method": "as §1, §2, §3"}, "[4]": {"test_system": "L. donovani intramacrophage amastigotes", "assay": "L. donovani intramacrophage compound sensitivity assay", "format": "cell-based", "settings": "Leishmania donovani, read-out: Intra-macrophage EC50", "method": "as §2"}, "[5]": {"assay": "Spectrophotometric UV-Vis titration and Job's plot of binding to divalent cations", "format": "physicochemical", "method": "UV-visible (UV-Vis) titrations were carried out essentially as described previously ([65], [66]). Aliquots of metal divalent cations (concentrated stocks were made initially in water and then diluted in methanol) were added to a fixed concentration of 50 μM 8-HNT compound in methanol. After each aliquot addition, the incubation mixture was left to stabilize for 5 min at 25°C prior to scanning. Wavelength scanning was carried out at between 260 and 510 nm by using a UV-2401 PC UV-Vis spectrophotometer (Shimadzu). For Job's plot analyses ([66]), the combined concentration of 8-HNT and cation was fixed at 200 μM, and only the molar ratio of cation versus 8-HNT compound varied. Changes of the absorption at 475, 390, and 375 nm were indicative of cation complex formation with compounds 1 to 3, respectively. Specific absorbance at these wavelengths was determined and plotted against the molar ratio of compound to cation to determine complex stoichiometry ([66])."}}, "note": "Where two headings read alike, the source gives them in different places.", "data": [{"smiles": "Cc1nnc(-c2nc(NCc3ccc(Cl)cc3)c3cccnc3c2O)[nH]1", "note": "[Compound 1]", "values": [{"measurement": "EC50", "setting": "HepG2 cells", "value": 10400, "unit": "nM"}, {"measurement": "EC50", "setting": "[1]", "value": "600 ± 50", "unit": "nM"}, {"measurement": "Shift (fold)", "setting": "[2]; CaCl2 (3 mM) vs WT", "value": 1.1, "unit": "fold"}, {"measurement": "Shift (fold)", "setting": "[2]; CuCl2 (5 μM) vs WT", "value": 1.1, "unit": "fold"}, {"measurement": "Shift (fold)", "setting": "[2]; FeCl2 (10 μM) vs WT", "value": 8.0, "unit": "fold"}, {"measurement": "Shift (fold)", "setting": "[2]; FeCl2 (10 μM) vs WT, listed as compound 1", "value": 8, "unit": "fold"}, {"measurement": "Shift (fold)", "setting": "[2]; MgCl2 (1 mM) vs WT", "value": 1.1, "unit": "fold"}, {"measurement": "Shift (fold)", "setting": "[2]; MnCl2 (10 μM) vs WT", "value": 1.0, "unit": "fold"}, {"measurement": "EC50", "setting": "[2]; Trypanosoma brucei, read-out: EC50, wild-type [WT] trypanosomes", "value": "850 ± 50", "unit": "nM"}, {"measurement": "EC50", "setting": "[2]; Trypanosoma brucei, read-out: Mean EC50 ± SD, Plus cation, plus CaCl2 (3 mM)", "value": "400 ± 100", "unit": "nM"}, {"measurement": "EC50", "setting": "[2]; Trypanosoma brucei, read-out: Mean EC50 ± SD, Plus cation, plus CuCl2 (5 μM)", "value": "400 ± 5", "unit": "nM"}, {"measurement": "EC50", "setting": "[2]; Trypanosoma brucei, read-out: Mean EC50 ± SD, Plus cation, plus MgCl2 (1 mM)", "value": "400 ± 30", "unit": "nM"}, {"measurement": "EC50", "setting": "[2]; Trypanosoma brucei, read-out: Mean EC50 ± SD, Plus cation, plus MnCl2 (10 μM)", "value": "400 ± 20", "unit": "nM"}, {"measurement": "EC50", "setting": "[2]; Trypanosoma brucei, read-out: Mean EC50 ± SD, WT, absence of cation, CaCl2 experiment", "value": "300 ± 800", "unit": "nM"}, {"measurement": "EC50", "setting": "[2]; Trypanosoma brucei, read-out: Mean EC50 ± SD, WT, absence of cation, CuCl2 experiment", "value": "300 ± 80", "unit": "nM"}, {"measurement": "EC50", "setting": "[2]; Trypanosoma brucei, read-out: Mean EC50 ± SD, WT, absence of cation, FeCl2 experiment", "value": "220 ± 10", "unit": "nM"}, {"measurement": "EC50", "setting": "[2]; Trypanosoma brucei, read-out: Mean EC50 ± SD, WT, absence of cation, MgCl2 experiment", "value": "400 ± 10", "unit": "nM"}, {"measurement": "EC50", "setting": "[2]; Trypanosoma brucei, read-out: Mean EC50 ± SD, WT, absence of cation, MnCl2 experiment", "value": "400 ± 10", "unit": "nM"}, {"measurement": "EC50", "setting": "[2]; Trypanosoma brucei, read-out: Mean EC50 ± SD, WT, absence of cation, ZnCl2 experiment", "value": "360 ± 90", "unit": "nM"}, {"measurement": "EC50", "setting": "[2]; Trypanosoma brucei, read-out: T. brucei bsf EC50, bloodstream form (Fig. 1)", "value": 320, "unit": "nM"}, {"measurement": "Shift (fold)", "setting": "[2]; ZnCl2 (200 μM) vs WT", "value": 8.0, "unit": "fold"}, {"measurement": "Shift (fold)", "setting": "[2]; ZnCl2 (200 μM) vs WT, listed as compound 1", "value": 8, "unit": "fold"}, {"measurement": "EC50", "setting": "[2]; read-out: Mean EC50 ± SD, WT, absence of cation, FeCl2 experiment", "value": "200 ± 10", "unit": "nM"}, {"measurement": "EC50", "setting": "[2]; read-out: Mean EC50 ± SD, WT, absence of cation, ZnCl2 experiment", "value": "350 ± 10", "unit": "nM"}, {"measurement": "EC50", "setting": "[3]; Leishmania donovani, read-out: EC50 values, WT, promastigotes, absence of cation, FeCl2 experiment", "value": "800 ± 30", "unit": "nM"}, {"measurement": "EC50", "setting": "[3]; Leishmania donovani, read-out: EC50 values, WT, promastigotes, absence of cation, ZnCl2 experiment", "value": "800 ± 10", "unit": "nM"}, {"measurement": "EC50", "setting": "[3]; Leishmania donovani, read-out: L. donovani pro EC50, promastigotes (Fig. 1)", "value": 760, "unit": "nM"}, {"measurement": "Shift", "setting": "[3]; promastigotes, FeCl2 (100 μM) vs WT", "value": 2.0, "unit": "fold"}, {"measurement": "Shift", "setting": "[3]; promastigotes, ZnCl2 (100 μM) vs WT", "value": 11.0, "unit": "fold"}, {"measurement": "Shift", "setting": "[3]; promastigotes, ZnCl2 (100 μM) vs WT, listed as compound 1", "value": 11, "unit": "fold"}, {"measurement": "EC50", "setting": "[3]; read-out: EC50 values, WT, promastigotes, absence of cation, FeCl2 experiment", "value": "780 ± 30", "unit": "nM"}, {"measurement": "EC50", "setting": "[4]", "value": 2100, "unit": "nM"}, {"measurement": "Zn^2+ concentration at which binding is saturable", "setting": "[5]; 50 μM compound, absorbance at 475 nm", "value": 25, "unit": "µM"}, {"measurement": "Job's plot intercept, molar fraction (compound to Zn^2+)", "setting": "[5]; combined concentration 200 μM in methanol, absorbance 475/390/375 nm", "value": 0.34}]}]}
